How the values were obtained:
HDAC6 [1] = target: T1, HDAC6 (Homo sapiens, UniProt Q9UBN7); experiment: HDAC inhibition assay; assay type: biochemical; conditions: for selectivity for HDAC6 over HDAC8 (between the two enzymes): from Ki values
T1 sequence (Q9UBN7 1-1215): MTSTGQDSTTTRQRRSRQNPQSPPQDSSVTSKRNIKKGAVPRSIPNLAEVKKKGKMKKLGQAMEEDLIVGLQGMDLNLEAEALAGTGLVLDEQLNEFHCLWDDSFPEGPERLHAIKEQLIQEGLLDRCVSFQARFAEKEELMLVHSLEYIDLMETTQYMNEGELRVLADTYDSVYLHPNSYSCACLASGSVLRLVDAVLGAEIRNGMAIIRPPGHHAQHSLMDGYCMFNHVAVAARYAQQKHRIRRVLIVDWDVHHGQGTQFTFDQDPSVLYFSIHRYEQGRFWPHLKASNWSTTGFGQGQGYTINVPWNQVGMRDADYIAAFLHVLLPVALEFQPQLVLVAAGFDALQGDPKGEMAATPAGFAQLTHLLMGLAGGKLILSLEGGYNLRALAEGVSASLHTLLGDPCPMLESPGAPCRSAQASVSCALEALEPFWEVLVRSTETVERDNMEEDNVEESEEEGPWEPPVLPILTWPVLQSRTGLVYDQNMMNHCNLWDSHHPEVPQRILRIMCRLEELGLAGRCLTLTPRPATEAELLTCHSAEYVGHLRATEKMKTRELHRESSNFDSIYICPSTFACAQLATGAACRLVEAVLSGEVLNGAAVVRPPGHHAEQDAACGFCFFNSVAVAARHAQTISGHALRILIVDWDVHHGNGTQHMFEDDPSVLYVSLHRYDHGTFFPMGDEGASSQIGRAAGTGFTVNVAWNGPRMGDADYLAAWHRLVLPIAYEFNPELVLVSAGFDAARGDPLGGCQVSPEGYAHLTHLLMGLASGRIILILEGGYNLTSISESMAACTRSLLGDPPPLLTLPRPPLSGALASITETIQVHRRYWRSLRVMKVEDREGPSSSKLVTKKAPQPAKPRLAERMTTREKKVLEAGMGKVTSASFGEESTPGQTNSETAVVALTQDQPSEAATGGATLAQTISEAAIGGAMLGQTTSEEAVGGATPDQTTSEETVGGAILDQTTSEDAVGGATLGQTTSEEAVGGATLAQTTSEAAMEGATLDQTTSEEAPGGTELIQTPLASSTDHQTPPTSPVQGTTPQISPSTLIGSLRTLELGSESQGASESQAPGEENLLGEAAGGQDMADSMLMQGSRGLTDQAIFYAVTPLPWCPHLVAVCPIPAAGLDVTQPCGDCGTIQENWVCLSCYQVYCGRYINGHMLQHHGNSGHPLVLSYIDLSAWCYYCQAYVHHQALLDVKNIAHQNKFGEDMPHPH

HDAC6 [2] = target: T1, HDAC6; experiment: HDAC inhibition assay with preincubation, HDAC6; assay type: biochemical; conditions: preincubation 0, 0.5, 1 or 2 h at 37 °C
[3] = tested on: lysine acetylation (α-tubulin, H3K18, H3K27, and SMC3) in HEK293T cells; experiment: Protein acetylation assay; assay type: cell-based, human; conditions: 5 h, 1 or 10 μM, Western blot
HDAC8 [4] = target: T2, HDAC8 (Homo sapiens, UniProt Q9BY41); experiment: Cellular thermal shift assay; assay type: cell-based; conditions: HEK293T cells, 10 µM, 2 h
T2 sequence (Q9BY41 1-377): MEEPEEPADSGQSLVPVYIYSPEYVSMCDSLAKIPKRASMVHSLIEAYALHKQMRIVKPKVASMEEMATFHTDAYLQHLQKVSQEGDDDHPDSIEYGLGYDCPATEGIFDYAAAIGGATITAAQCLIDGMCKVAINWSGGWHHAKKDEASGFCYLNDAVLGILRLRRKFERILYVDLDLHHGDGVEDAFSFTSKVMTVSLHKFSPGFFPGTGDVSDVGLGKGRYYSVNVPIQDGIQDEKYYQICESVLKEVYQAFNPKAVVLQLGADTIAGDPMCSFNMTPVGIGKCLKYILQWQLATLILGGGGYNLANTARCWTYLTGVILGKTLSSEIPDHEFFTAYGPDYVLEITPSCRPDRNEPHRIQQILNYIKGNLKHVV

HDAC11 = target: T3, HDAC11 (Homo sapiens, UniProt Q96DB2); experiment: HDAC inhibition assay with preincubation, HDAC11; assay type: biochemical; conditions: preincubation 0, 0.5, 1 or 2 h at 37 °C
T3 sequence (Q96DB2 1-347): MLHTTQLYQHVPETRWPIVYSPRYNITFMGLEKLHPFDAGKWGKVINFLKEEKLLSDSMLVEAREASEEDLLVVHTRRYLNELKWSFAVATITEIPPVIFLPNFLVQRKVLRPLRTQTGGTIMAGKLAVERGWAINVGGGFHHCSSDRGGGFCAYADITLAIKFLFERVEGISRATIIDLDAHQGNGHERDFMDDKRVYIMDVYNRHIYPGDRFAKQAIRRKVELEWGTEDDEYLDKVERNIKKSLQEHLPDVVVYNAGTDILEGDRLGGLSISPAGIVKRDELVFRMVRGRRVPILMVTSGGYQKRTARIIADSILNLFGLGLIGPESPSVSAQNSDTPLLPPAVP

HDAC8 [5] = target: T2, HDAC8; experiment: HDAC inhibition assay; assay type: biochemical

Compound	Ki (HDAC6 [1])	selectivity for HDAC6 over HDAC8 (between the two enzymes) (HDAC6 [1])	change of IC50 upon preincubation with HDAC6 (HDAC6 [2])	acetylation of α-tubulin compared to DMSO control [3]	thermal shift of HDAC8 relative to DMSO control (HDAC8 [4])	change of IC50 upon preincubation with HDAC11 (HDAC11)	Ki (HDAC8 [5])
O=C(NO)c1cncc(OS(=O)(=O)Oc2ccc3ccccc3c2)c1 [E24]	14 nM	~20 fold	did not observe any decrease in IC50 value upon preincubation	significant upregulation	no shift		
Cc1c(OS(=O)(=O)Oc2ccc(Oc3ccccc3)cc2)cccc1C(=O)NO [D21]						did not observe any decrease in IC50 value upon preincubation	
COc1ccc(OS(=O)(=O)Oc2cccc(C(=O)NO)c2)cc1OC [A17]							22 nM
O=C(NO)c1cc(F)cc(OS(=O)(=O)Oc2ccccc2)c1 [C1]		20 fold	did not observe any decrease in IC50 value upon preincubation	significant upregulation			
